Values of other authors as cited in patent US8815815B2, “Methods for producing phytoextracts from vegetation waters and olive oil pomaces and compositions obtained thereby” (Phenofarm S.r.l., priority 2011, dated 2014).
Values after ≈ are worked out from the molar mass of the structure shown.

Experiments:
[1] = tested on: P-388 murine leukaemia cells
neutrophils = conditions: in vitro
[2] = tested on: PC12 neuronal cell culture; conditions: 1-methyl-4-phenylpyridine (MPP+) ion

SMILES | ED50 cytotoxic action [1] [µg/mL] | chemotactic activity of neutrophils (neutrophils) | protection activity against neurotoxicity induced by MPP+ [2]
C[C@@H]1O[C@@H](O[C@@H]2[C@@H](O)[C@H](OCCc3ccc(O)c(O)c3)O[C@H](COC(=O)/C=C/c3ccc(O)c(O)c3)[C@H]2O)[C@H](O)[C@H](O)[C@H]1O [isoacteoside] | 10 (≈ 16 µM) |  | 
C[C@@H]1O[C@@H](O[C@@H]2[C@@H](O)[C@H](OCCc3ccc(O)c(O)c3)O[C@H](CO)[C@H]2OC(=O)/C=C/c2ccc(O)c(O)c2)[C@H](O)[C@H](O)[C@H]1O [verbascoside] | 26 (≈ 41.6 µM) | increasing the chemotactic activity of neutrophils | protection activity against neurotoxicity
